Where “and” joins values, the source holds several entries; their conditions need not be identical. Identical values can stand only once.
Assays:
BChE (from human serum) = target: T1, BChE (from human serum) (Homo sapiens, UniProt P06276); assay: biochemical; type: biochemical; conditions: for IC50 / BChE IR (inhibition ratio): mean ± SEM of three experiments; for BChE IR (inhibition ratio): at 10 μM
T1 construct: BChE (from human serum, B4186); purchased Sigma-Aldrich B4186; host or cells: human serum
T1 sequence (P06276 29-602): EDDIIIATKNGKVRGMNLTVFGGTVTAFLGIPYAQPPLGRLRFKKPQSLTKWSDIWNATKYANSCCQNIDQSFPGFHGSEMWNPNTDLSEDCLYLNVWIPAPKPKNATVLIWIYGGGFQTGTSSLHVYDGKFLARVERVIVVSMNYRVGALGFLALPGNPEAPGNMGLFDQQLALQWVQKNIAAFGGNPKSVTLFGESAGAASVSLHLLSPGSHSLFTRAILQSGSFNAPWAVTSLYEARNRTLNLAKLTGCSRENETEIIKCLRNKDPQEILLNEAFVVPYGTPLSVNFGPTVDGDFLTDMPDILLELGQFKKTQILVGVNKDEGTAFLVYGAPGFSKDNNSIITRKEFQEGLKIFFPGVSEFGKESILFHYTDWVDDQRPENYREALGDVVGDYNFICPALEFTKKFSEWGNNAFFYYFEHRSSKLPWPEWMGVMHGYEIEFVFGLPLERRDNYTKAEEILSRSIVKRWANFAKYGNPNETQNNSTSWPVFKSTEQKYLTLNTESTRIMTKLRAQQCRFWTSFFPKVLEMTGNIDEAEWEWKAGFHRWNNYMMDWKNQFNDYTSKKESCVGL
Experimental: (§1) Modified Ellman’s assay was performed to measure the inhibitory effects of purchased compounds on ChEs using a Thermo Fisher Scientific spectrophotometer. AChE (from human erythrocytes, C0663), BChE (from human serum, B4186), 5,5-dithiobis-(2-nitrobenzoic acid) (DTNB, D218200), acetylthiocholine iodide (ATC, A5751), and butyrylthiocholine iodide (BTC, B3253) were purchased from Sigma-Aldrich (St. Louis, MO, USA).
(§2) For measurement, a cuvette containing 30 μL of phosphate buffer, 10 μL of AChE (2.5 units/mL) or BChE (2.5 units/mL), and 10 μL of the test compound solution was allowed to stand for 5 min before 10 μL of DTNB was added. After the addition of 20 μL of ATC or BTC, the reaction was initiated and the solution was mixed immediately. […] 10 μL of phosphate-buffered solution replaced the enzyme solution were used to determine the blank value. All the measurements were done in triplicate. The inhibition curve was drawn by plotting the percentage enzyme activity (100% for the reference) versus the logarithm of the test compound concentration. The IC50 values were calculated by GraphPad Prism 6 (GraphPad Software, San Diego, CA, USA), and the data were shown as mean ± standard error of mean (SEM).

[1] = target: T2, AChE (from human erythrocytes) (Homo sapiens, UniProt P22303); assay: biochemical; type: biochemical; conditions: mean ± SEM of three experiments; for AChE IR (inhibition ratio): at 10 μM
T2 construct: AChE (from human erythrocytes, C0663); purchased Sigma-Aldrich C0663; host or cells: human erythrocytes
T2 sequence (P22303 other isoform, or with tags, fused parts or gaps): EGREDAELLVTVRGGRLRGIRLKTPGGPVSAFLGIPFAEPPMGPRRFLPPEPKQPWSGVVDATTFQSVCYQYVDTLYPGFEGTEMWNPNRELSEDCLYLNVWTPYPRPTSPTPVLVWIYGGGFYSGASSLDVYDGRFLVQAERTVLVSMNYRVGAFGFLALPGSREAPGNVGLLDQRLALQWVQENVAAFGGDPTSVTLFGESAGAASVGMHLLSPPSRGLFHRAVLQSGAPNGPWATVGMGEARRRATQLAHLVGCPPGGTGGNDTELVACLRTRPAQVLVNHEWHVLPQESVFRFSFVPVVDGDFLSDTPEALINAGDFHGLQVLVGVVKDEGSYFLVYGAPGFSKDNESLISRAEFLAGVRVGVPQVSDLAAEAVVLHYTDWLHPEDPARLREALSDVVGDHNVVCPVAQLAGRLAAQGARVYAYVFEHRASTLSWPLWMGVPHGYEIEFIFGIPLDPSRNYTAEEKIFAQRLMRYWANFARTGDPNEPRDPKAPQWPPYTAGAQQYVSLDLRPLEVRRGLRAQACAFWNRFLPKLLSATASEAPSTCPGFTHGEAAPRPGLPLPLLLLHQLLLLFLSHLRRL
Experimental: as §1, §2

SH-SY5Y cells = assay: MTT cell viability assay; type: cell-based; conditions: 10 μM and 50 μM, 24 h
Experimental: The human neuroblastoma SH-SY5Y cells (3 × 10^3, DMEM medium supplemented with 10% fetal bovine serum, volume 0.1 mL) were placed in a 96-well flat-bottomed plate, in a humidified atmosphere of 95% air and 5% CO2 at 37 °C and grown to 80% confluence. Before cell treatment, the complete medium was replaced with reduced-serum medium (BI, 01-052-1ACS). Then, cells were treated with various concentrations of compounds for 24 h. MTT reagent (D&B, Q108115) (0.5 mg/mL) was added to the wells and the plates were incubated for 4 h at 37 °C. Supernatants were carefully removed, and 150 μL of dimethylsulfoxide (DMSO) were added into each well. The absorbance was measured at 570 nm using the spectrophotometer (Thermo, multiskan FC, USA). Cells were treated in quadruplicate. The values are the mean ± SD of three independent experiments.

BChE = target: T3, BChE (Homo sapiens, UniProt P06276); assay: Enzyme kinetic study with BChE (substrate BTC); type: biochemical; conditions: for Apparent Vmax: mean ± SD; for Kiu (inhibition constant for the uncompetitive part of inhibition) / Ki: mean ± SEM of three experiments; for Ki: read-out: Kic (inhibition constant for the competitive part of inhibition); for Mode of inhibition: substrate 90–904 μM, inhibitor 0.5–2 μM
T3 construct: BChE (from human serum, B4186); purchased Sigma-Aldrich B4186; host or cells: human serum
T3 sequence (P06276 29-602): as the sequence (P06276 29-602) above
Experimental: Kinetic studies were performed in the same manner as the determination of ChE inhibition as previously described. The substrate (BTC) was used at various concentrations (90, 150, 226, 452, and 904 μM) for each test compound concentration and the enzymatic reaction was extended to four minutes before determining the absorption. The Vmax and Km values of the Michaelis–Menten kinetics were calculated by nonlinear regression from substrate–velocity curves using Graphpad Prism 6 (GraphPad Software, San Diego, CA, USA) (Table S1). […]

hBChE = conditions: read-out: IC50 (hBChE); Figure 1; ref 22 (1), 23 (2), 24 (3), 25 (4); cited from earlier work
hAChE = test system: hAChE; parameters: method as in earlier work; conditions: Figure 1; ref 22 (1), 23 (2); cited from earlier work

## COC(=O)c1c(S(=O)(=O)Nc2ccc(C)cc2)sc2c1CCN(Cc1ccccc1O)C2 [Compound 19]
BChE (from human serum)
  BChE selective index (SI BChE, AChE IC50/BChE IC50): 6
  IC50: 2.4 ± 1 µM
[1]
  IC50: 13.8 ± 6 µM

## Cc1ccc(S(=O)(=O)Nc2nc3ccccc3nc2NCc2ccc(F)cc2)cc1C [Compound 5]
BChE (from human serum)
  BChE IR (inhibition ratio): 7.2 ± 0.6%
[1]
  AChE IR (inhibition ratio): −0.31 ± 0.5%

## O=C(O)C(c1c[nH]c2ccccc12)N1CCN(c2ccccn2)CC1 (centres unmarked) [Compound 15]
BChE (from human serum)
  BChE IR (inhibition ratio): −0.6 ± 0.5%
[1]
  AChE IR (inhibition ratio): 0.6 ± 1.0%

## Cc1cc(C)cc(N(CC(=O)N2CCN(Cc3ccccc3)CC2)S(=O)(=O)c2ccccc2)c1 [Compound 17]
BChE (from human serum)
  BChE IR (inhibition ratio): 11.8 ± 1.2%
[1]
  AChE IR (inhibition ratio): 2.9 ± 0.5%

## Cc1nc(-c2cccc(F)c2)n(CCC(=O)NCCCc2ccccc2)c(=O)c1CCO [Compound 6]
BChE (from human serum)
  BChE IR (inhibition ratio): 8.5 ± 0.3%
[1]
  AChE IR (inhibition ratio): −1.5 ± 0.5%

## COc1ccc(CCN2CCCC(O)(CNCc3cc(C)ccc3C)C2=O)cc1 (centres unmarked) [Compound 18]
SH-SY5Y cells
  Effect on cell viability (cytotoxicity): none of compounds was observed to affect cell viability
BChE (from human serum)
  BChE selective index (SI BChE, AChE IC50/BChE IC50): > 30
  BChE IR (inhibition ratio): 58.4% and 58.4 ± 0.9%
  IC50: 6.3 ± 2 µM
[1]
  AChE IR (inhibition ratio): 11.1% and 11.1 ± 1.5%
BChE; inhibitor 0.5 µM
  Apparent Vmax: 0.49 ± 0.01 µM/min
BChE; inhibitor 1 µM
  Apparent Vmax: 0.42 ± 0.02 µM/min
BChE; inhibitor 1.5 µM
  Apparent Vmax: 0.39 ± 0.01 µM/min
BChE; inhibitor 2 µM
  Apparent Vmax: 0.28 ± 0.02 µM/min
BChE
  Kiu (inhibition constant for the uncompetitive part of inhibition): 2.31 ± 0.32 µM
  Ki: 0.93 ± 0.13 µM
  Mode of inhibition: mixed-type inhibitors

## CCCCCCCNC(=O)Oc1ccc2c(c1)CN(C)C(c1cccs1)N2C (centres unmarked) [Compound 4]
hBChE
  IC50: 0.013 µM

## O=C(CC1NC(N2CCN(Cc3ccccc3)CC2)=NC1=O)Nc1ccccc1 (centres unmarked) [Compound 10]
BChE (from human serum)
  BChE IR (inhibition ratio): 9.9 ± 1.0%
[1]
  AChE IR (inhibition ratio): 7.8 ± 0.7%

## COCCN(CC1CCCN(Cc2ccccc2)C1)S(=O)(=O)c1ccc2ccccc2c1 (centres unmarked) [Compound 1, N-((1-benzylpiperidin-3-yl)methyl)-N-(2-methoxyethyl)naphthalene-2-sulfonamide]
hAChE
  IC50: > 10 µM

## Cc1noc(C)c1CN(C)Cc1ccn(S(=O)(=O)c2ccccc2)c1 [Compound 7]
BChE (from human serum)
  BChE IR (inhibition ratio): 16.3 ± 1.1%
[1]
  AChE IR (inhibition ratio): 0.6 ± 0.6%

## CCN(Cc1ccccc1)C(=O)CCc1nc2ccsc2c(=O)n1Cc1ccccc1 [Compound 14]
BChE (from human serum)
  BChE IR (inhibition ratio): 3.4 ± 0.4%
[1]
  AChE IR (inhibition ratio): 10.9 ± 0.8%

## O=C(NC1(C(F)(F)F)N=C(c2ccccc2)N(Cc2ccccc2)C1=O)c1ccco1 (centres unmarked) [Compound 11]
BChE (from human serum)
  BChE IR (inhibition ratio): 14.8 ± 1.3%
[1]
  AChE IR (inhibition ratio): −0.7 ± 0.7%

## O=C1NCCCc2c1c1ccccc1n2CCc1cccc(F)c1 [Compound 3]
hBChE
  IC50: 0.0018 µM

## CC1=NC2C(SC(=S)N2Cc2ccco2)C(=O)N1CC(=O)NCCc1ccccc1 (centres unmarked) [Compound 12]
BChE (from human serum)
  BChE IR (inhibition ratio): −1.8 ± 1.1%
[1]
  AChE IR (inhibition ratio): 1.1 ± 1.0%

## COCCN1C(=O)N(CCc2ccccc2)C(=O)C12CCN(Cc1ccccc1)CC2 [Compound 9]
BChE (from human serum)
  BChE IR (inhibition ratio): 15.5 ± 1.6%
[1]
  AChE IR (inhibition ratio): 16.0 ± 1.5%

## COc1cccc(S(=O)(=O)NCC2CCCN(Cc3cc4ccccc4o3)C2)c1 (centres unmarked) [Compound 16]
BChE (from human serum)
  BChE IR (inhibition ratio): 26.4 ± 1.1%
[1]
  AChE IR (inhibition ratio): 38.7 ± 1.7%

## COc1ccccc1CN1CCCC(CN(CCN(C)C)C(=O)C(=O)c2ccccc2)C1 (centres unmarked) [Compound 8]
SH-SY5Y cells
  Effect on cell viability (cytotoxicity): none of compounds was observed to affect cell viability
BChE (from human serum)
  BChE selective index (SI BChE, AChE IC50/BChE IC50): > 30
  IC50: 1.1 ± 0.6 µM
BChE; inhibitor 0.5 µM
  Apparent Vmax: 0.34 ± 0.01 µM/min
BChE; inhibitor 1 µM
  Apparent Vmax: 0.27 ± 0.01 µM/min
BChE; inhibitor 1.5 µM
  Apparent Vmax: 0.25 ± 0.01 µM/min
BChE; inhibitor 2 µM
  Apparent Vmax: 0.24 ± 0.01 µM/min
BChE
  Kiu (inhibition constant for the uncompetitive part of inhibition): 3.61 ± 0.24 µM
  Ki: 0.88 ± 0.07 µM
  Mode of inhibition: mixed-type inhibitors

## COc1cccc(N(CC(=O)N2CCN(Cc3ccccc3)CC2)S(=O)(=O)c2ccccc2)c1 [Compound 13]
BChE (from human serum)
  BChE IR (inhibition ratio): 20.1 ± 1.2%
[1]
  AChE IR (inhibition ratio): 11.3 ± 1.3%

## CN(C)CCN(CC1CCCN(C2Cc3ccccc3C2)C1)C(=O)c1ccc2ccccc2c1 (centres unmarked) [Compound 2]
hAChE
  IC50: > 10 µM

Reference: publication PMC6930573, “Discovery of Selective Butyrylcholinesterase (BChE) Inhibitors through a Combination of Computational Studies and Biological Evaluations” (Molecules, 2019)
